The record followed here is article PMC9230136 (Pharmaceutics, 2022).

Type in all cases: cell-based, human
Test [1] relates to HeLa cells. The experiment in a line: Western blot of cellular protein expression. The settings on record: 24 h. The protocol:
Following growth for various times in the presence of 8q, HeLa cells were harvested by centrifugation and washed twice in 0 °C PBS. Cells were lysed with 0.1% (v/v) Triton X-100 containing RNase A at 0 °C, and supernatants were obtained by centrifuging the lysed cells at 15,000× g for 10 min at 4 °C. The protein content of the solutions was measured, and 10 μg of protein from each sample was subjected to sodium dodecyl sulfate polyacrylamide gel electrophoresis. Proteins were transferred by electroblotting to a poly(vinylidene difluoride) Hybond-P membrane from GE Healthcare. Membranes were treated with 5% bovine serum albumin in PBS containing 0.1% Tween 20 overnight at 4 °C. The membranes were then exposed for 2 h at room temperature to primary antibodies directed against cyclin B cdc25c, cdc2 (Y15), BCL-2, cleaved poly (ADP-ribose) polymerase (PARP), MCL-1, XIAP and vinculin (all from Cell Signaling), and subsequently for 1 h to peroxidase-labeled secondary antibodies. The membranes were visualized using ECL select (GE Healthcare), and images were acquired using a Uvitec-Alliance imaging system. Densitometric analysis of Western blots was performed by ImageJ software and the results were normalized to β-actin and represented as fold change with respect to untreated controls.
A general note: In western blotting, separated proteins are transferred to a membrane and probed.

Test [2] concerns HeLa cells. Nature of the test: EdU cell proliferation assay. The settings on record: 25 or 50 nM; 24 h. The protocol:
HeLa cells were seeded in a 6-well plate and, after a 24 h incubation, were treated with the desired compounds as indicated in the Biological Results and Discussion section. Cells were re-incubated for one day and then labeled with EdU (10 μM) for 3 h under cell culture conditions. Cells were harvested by centrifugation before proceeding with the fixation step using 3.7% formaldehyde. Next, permeabilization with 0.5% Triton X-100 was performed. The reaction cocktail was prepared and added to each well (100 μL/well) following the manufacturer’s instructions (EdU-Click 488, base click, Sigma-Aldrich. Milano Italy), and the plate was incubated at room temperature for 30 min in the dark. Cells were washed 2 times with phosphate-buffered saline (PBS) before reading samples with a Beckman Coulter Cytomics FC500 instrument (λex/λem = 496/516 nm).

Another test has as its system A549. The experiment in a line: Antiproliferative assay (resazurin, 72 h). As to conditions: Table 2, mean ± SE. The essentials: (§1)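 Seed cells; after 24 h add compounds (10 mM DMSO stocks, diluted 5-fold serially from 10 μM). Incubate 72 h, then add resazurin for 3–4 h and measure fluorescence (535/600 nm). HT-29 was grown in RPMI-1640 and the others in DMEM, with 10% FBS.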
A general note: Alamar Blue is a resazurin reagent that responds to reducing activity.

In a further test the test system is MDA-MB-231. Nature of the test: Antiproliferative assay (resazurin, 72 h). The settings on record: Table 2; mean ± SE; 72 h. Put shortly: as §1
For the next test, the system named is Jurkat. The experiment in a line: Antiproliferative assay (resazurin, 72 h). The settings on record: Table 2; mean ± SE; 72 h. Put shortly:
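Compounds dissolved in DMSO as 10 mM stocks were applied to seeded Jurkat cells using 5-fold serial dilutions from 10 μM, with each condition run in triplicate. Following 72 h incubation, 10 μL of 100 μg/mL resazurin was added for 3–4 h, and fluorescence was measured at 535 nm excitation and 600 nm emission.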

The test system of a further test is HeLa. Nature of the test: Antiproliferative assay (resazurin, 72 h). The settings on record: Table 2, mean ± SE. Put shortly:
as §1

The test system of the next test is HT-29. Nature of the test: Antiproliferative assay (resazurin, 72 h). As to conditions: Table 2; mean ± SE; 72 h. Put shortly:
as §1

Test [3] relates to HeLa cells. Nature of the test: Mitochondrial membrane potential (JC-1). As to conditions: Figure 8A representative plot; concentration not given. The protocol: The mitochondrial potential was evaluated in HeLa cells by flow cytometry using the cell membrane permeable cationic dye 5,5′,6,6′-tetrachloro-1,1′,3,3′-tetraethyl-imidacarbocyanine iodide (JC-1) (Molecular Probes) as described previously. The production of ROS was measured in HeLa cells by flow cytometry using 2′,7′-dichlorodihydrofluorescein diacetate (H2DCFDA) (Molecular Probes) as described previously.

For test [4], the system named is A549, MDA-MB-231, HeLa, HT-29 and Jurkat cancer cell lines. Nature of the test: Antiproliferative activity over the panel of cancer cell lines. The settings on record: mean over the five cancer cell lines; read-out: mean IC50 (antiproliferative activity). The essentials:
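HT-29 cells were cultured in RPMI-1640, while MDA-MB-231, A549 and HeLa were cultured in DMEM, both with 10% FBS. Cells were treated 24 h after seeding with 5-fold serial dilutions starting at 10 μM, in triplicate, and incubated for 72 h at 37 °C. Resazurin fluorescence was read at ex 535/em 600 nm.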

Test [5] deals with HeLa cells. Nature of the test: Scratch-migration assay. The settings on record: 0.625–10 nM; 24 and 48 h. The protocol: HeLa cells were plated at 100,000 cells per well in a 6-well plate and incubated at 37 °C for 24 h. The day after seeding, cells were nearly confluent, so the sheet of cells was gently wounded through the horizontal and vertical axes using a micropipette tip. Cells were rinsed twice with PBS solution to remove cell debris; next, they were treated with different sublethal concentrations of compound 8q. At different time points, four images per experimental condition were captured using a stereomicroscope at 10X magnification. The distance between the two edges of the wound area was quantified with ImageJ software.

For test [6], the system named is HeLa cells. Nature of the test: Apoptosis by annexin-V-FITC/PI flow cytometry. The protocol:
Surface exposure of phosphatidylserine on apoptotic cells was measured by flow cytometry with a Beckman Coulter Cytomics FC500 (Beckman Coulter Italia, Milano, Italy) by adding annexin-V conjugated to fluorescein isothiocyanate (FITC) to cells according to the manufacturer’s instructions (Annexin-V Fluos, Roche Diagnostic, Monza, Italy). Simultaneously, the cells were stained with PI. Excitation was set at 488 nm, and the emission filters were at 525 and 585 nm, respectively, for FITC and PI.
Background: Flow cytometry measures light scatter and fluorescence of single cells or particles in a stream.

Each structure is given as a SMILES string.

On to `Cc1cc(Nc2ccc(F)cc2)n2nc(NCCCc3ccccc3)nc2n1` [Compound 8q], for which the “BCL-2 and MCL-1 expression” value in the test with HeLa cells [1] (50 nM) was “partial reduction in BCL-2 and MCL-1 expression”. In addition, in the test on HeLa cells [1] (50 nM), the “caspase-3 activation and PARP cleavage” value is “appearance of the cleaved fragment of the executioner caspase-3 and the consequent cleavage of its substrate PARP”. In the test on HeLa cells [1], the “ATR (Ser428) and CHK1 (S345) phosphorylation” value is “appreciable increase in ATR phosphorylation (Ser428) and of its downstream target CHK1 (S345)”. The “cdc2 phosphorylation (Tyr15)” value in the test on HeLa cells [1] is “significant reduction in cdc2 phosphorylation (Tyr15)”. The “EdU incorporation / cell proliferation” value in the test with HeLa cells [2] was “effective in reducing HeLa cell proliferation”. Further, the concentration for half-maximal inhibition (IC50) (in general, the point on the concentration scale where inhibition reaches its midpoint) is 0.13 ± 0.09 µM in the test with A549; 0.062 ± 0.03 µM in the test with MDA-MB-231; 0.15 ± 0.02 µM in the test with Jurkat; 0.029 µM with HeLa; 0.049 ± 0.01 µM with HT-29; 0.083 µM in [4]. The “Monomers (%) (monomeric JC-1)” value in the test on HeLa cells [3] worked out at 64.4%. Further, in the test on HeLa cells [5], the “cell migration / wound closure” value is given as “significantly arrested the movement of cells, preventing wound closure”. Also, the “concentration from which apoptosis was induced” value in the test with HeLa cells [6] was 50 nM.
